Reference: ChEMBL document CHEMBL4819127, “Syntheses and antimicrobial activities of ogipeptin derivatives” (Bioorg Med Chem Lett, 2021)
Values after ≈ are worked out from the molar mass of the structure shown.

What was measured:
[1] = tested on: Acinetobacter baumannii; test: Antibacterial activity against Acinetobacter baumannii IHMA 1312713 assessed as bacterial growth inhibition; format: functional
[2] = tested on: Klebsiella pneumoniae; test: Antibacterial activity against Klebsiella pneumoniae IHMA 1387833 assessed as bacterial growth inhibition; format: functional
[3] = tested on: Pseudomonas aeruginosa; test: Antibacterial activity against Pseudomonas aeruginosa IHMA 1375891 assessed as bacterial growth inhibition; format: functional
[4] = tested on: Escherichia coli; test: Antibacterial activity against Escherichia coli ATCC 47076 assessed as bacterial growth inhibition; format: functional
[5] = (§1) Cytotoxicity against HEK293 cells; format: cell-based; details: human, HEK293 cells
[6] = tested on: Pseudomonas aeruginosa; test: Antibacterial activity against Pseudomonas aeruginosa ATCC 15692 assessed as bacterial growth inhibition; format: functional
[7] = tested on: Klebsiella pneumoniae; test: Antibacterial activity against Klebsiella pneumoniae ATCC 700721 assessed as bacterial growth inhibition; format: functional
[8] = tested on: HepG2; test: Cytotoxicity against human HepG2 cells; format: functional
[9] = tested on: Klebsiella pneumoniae; test: Antibacterial activity against Klebsiella pneumoniae ATCC 10031 assessed as bacterial growth inhibition; format: functional
[10] = tested on: Acinetobacter baumannii; test: Antibacterial activity against Acinetobacter baumannii ATCC 19606 assessed as bacterial growth inhibition; format: functional; details: ATCC 19606 = CIP 70.34 = JCM 6841
[11] = tested on: Klebsiella pneumoniae; test: Antibacterial activity against Klebsiella pneumoniae JCM 1662 assessed as bacterial growth inhibition; format: functional
[12] = Lipophilicity, logD of compound; format: physicochemical; details: octanol/water
[13] = tested on: Pseudomonas aeruginosa; test: Antibacterial activity against Pseudomonas aeruginosa ATCC 27853 assessed as bacterial growth inhibition; format: functional
[14] = tested on: HEK293; test: as §1; format: cell-based; details: human, hek293

MIC [1] [µg/mL] | MIC [2] [µg/mL] | MIC [3] [µg/mL] | MIC [4] [µg/mL] | MIC [6] [µg/mL] | MIC [7] [µg/mL] | MIC [9] [µg/mL] | MIC [10] [µg/mL] | MIC [11] [µg/mL] | logD [12] | MIC [13] [µg/mL] | Compound | CC50 [5] [µM] | CC50 [8] [µM] | CC50 [14] [µM]
> 256 | > 256 | 128 (≈ 134 µM) | 2 (≈ 2.09 µM) | 64 (≈ 67 µM) | > 256 | 1 (≈ 1.05 µM) | 2 (≈ 2.09 µM) | > 256 | 3.756 | 4 (≈ 4.19 µM) | C/C=C1\NC(=O)C(NC(=O)CCCCCCCCC)C(O)CNC(=O)C(C(O)CN)NC(=O)C(C(O)CN)NC(=O)[C@H](CCCNC(=N)N)NC(=O)[C@H](CC(C)C)NC(=O)[C@H](CCN)NC1=O (stereo partly drawn) | > 64 | > 64 | –
8 (≈ 7.6 µM) | > 256 | 64 (≈ 60.8 µM) | 2 (≈ 1.9 µM) | 64 (≈ 60.8 µM) | 4 (≈ 3.8 µM) | 4 (≈ 3.8 µM) | 2 (≈ 1.9 µM) | 4 (≈ 3.8 µM) | 4.984 | 4 (≈ 3.8 µM) | C/C=C1\NC(=O)C(NC(=O)c2ccc(Oc3ccccc3CCCC)cc2)C(O)CNC(=O)C(C(O)CN)NC(=O)C(C(O)CN)NC(=O)[C@H](CCCNC(=N)N)NC(=O)[C@H](CC(C)C)NC(=O)[C@H](CCN)NC1=O (stereo partly drawn) | > 64 | > 64 | –
256 (≈ 261 µM) | > 256 | > 256 | 2 (≈ 2.04 µM) | > 256 | 8 (≈ 8.17 µM) | 2 (≈ 2.04 µM) | 2 (≈ 2.04 µM) | > 256 | 2.829 | 4 (≈ 4.08 µM) | C/C=C1\NC(=O)C(NC(=O)c2cc3cc(Cl)ccc3o2)C(O)CNC(=O)C(C(O)CN)NC(=O)C(C(O)CN)NC(=O)[C@H](CCCNC(=N)N)NC(=O)[C@H](CC(C)C)NC(=O)[C@H](CCN)NC1=O (stereo partly drawn) | > 64 | > 64 | –

The next lines start with the compound.

Compound | MIC [1] [µg/mL] | MIC [2] [µg/mL] | MIC [3] [µg/mL] | MIC [4] [µg/mL] | MIC [6] [µg/mL] | MIC [7] [µg/mL] | MIC [9] [µg/mL] | MIC [10] [µg/mL] | MIC [11] [µg/mL] | logD [12] | MIC [13] [µg/mL] | CC50 [5] [µM] | CC50 [8] [µM] | CC50 [14] [µM]
C/C=C1\NC(=O)C(NC(=O)COc2ccc(/C=C/C(=O)OC(C)(C)C)cc2)C(O)CNC(=O)C(C(O)CN)NC(=O)C(C(O)CN)NC(=O)[C@H](CCCNC(=N)N)NC(=O)[C@H](CC(C)C)NC(=O)[C@H](CCN)NC1=O (stereo partly drawn) | 128 (≈ 121 µM) | > 256 | 128 (≈ 121 µM) | 2 (≈ 1.88 µM) | 8 (≈ 7.54 µM) | 2 (≈ 1.88 µM) | 2 (≈ 1.88 µM) | 2 (≈ 1.88 µM) | > 256 | 2.65 | 4 (≈ 3.77 µM) | > 64 | > 64 | –
COLISTIN | – | – | – | – | – | – | – | – | – | – | – | – | – | > 64
